Legend:
human PPARdelta = target: T1, human PPARdelta (Homo sapiens, UniProt Q03181); test: cellular PPARdelta assay (stably transfected HEK luciferase reporter cell line); type: cell-based
T1 construct: amino acids S139-Y441; expressed in transfected cells; host or cells: HEK (human embryo kidney) cells, stably transfected, pcDNA3 vector
T1 sequence (Q03181 139-441): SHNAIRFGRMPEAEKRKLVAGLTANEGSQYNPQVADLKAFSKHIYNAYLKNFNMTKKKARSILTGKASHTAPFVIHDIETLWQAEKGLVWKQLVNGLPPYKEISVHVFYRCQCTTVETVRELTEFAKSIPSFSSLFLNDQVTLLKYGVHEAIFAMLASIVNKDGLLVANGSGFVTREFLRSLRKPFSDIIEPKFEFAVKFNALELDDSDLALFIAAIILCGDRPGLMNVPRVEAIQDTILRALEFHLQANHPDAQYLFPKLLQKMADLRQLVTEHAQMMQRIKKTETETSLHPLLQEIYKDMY
Procedure: The potency of substances which bind to human PPARdelta and activate it in an agonistic manner is analyzed using a stably transfected HEK cell line (HEK=human embryo kidney) which is referred to here as PPARdelta reporter cell line. In analogy to the assay described for PPARalpha, the PPARdelta reporter cell line also contains two genetic elements, a luciferase reporter element (pdeltaM-GAL4-Luc-Zeo) and a PPARdelta fusion protein (GR-GAL4-humanPPARdelta-LBD) which mediates expression of the luciferase reporter element depending on a PPARdelta ligand. The stably and constitutively expressed fusion protein GR-GAL4-humanPPARdelta-LBD binds in the cell nucleus of the PPARdelta reporter cell line via the GAL4 protein portion to the GAL4 DNA binding motifs 5′-upstream of the luciferase reporter element which is stably integrated in the genome of the cell line. There is only little expression of the luciferase reporter gene in the absence of a PPARdelta ligand if fatty acid-depleted fetal calf serum (cs-FCS) is used in the assay. PPARdelta ligands bind and activate the PPARdelta fusion protein and thereby stimulate expression of the luciferase reporter gene. The luciferase which is formed can be detected by means of chemiluminescence via an appropriate substrate.
The production of the stable PPARdelta reporter cell line is based on a stable HEK-cell clone which was stably transfected with a luciferase reporter element. This step was already described above in the section “construction of the PPARalpha reporter cell line”. In a second step, the PPARdelta fusion protein (GR-GAL4-humanPPARdelta-LBD was stably introduced into this cell clone. For this purpose, the cDNA coding for the N-terminal 76 amino acids of the glucocorticoid receptor (Accession #P04150) was linked to the cDNA section coding for amino acids 1-147 of the yeast transcription factor GAL4 (Accession #P04386). The cDNA of the ligand-binding domain of the human PPARdelta receptor (amino acids S139-Y441; Accession #L07592) was cloned in at the 3′-end of this GR-GAL4 construct. The fusion construct prepared in this way (GR-GAL4-humanPPARdelta-LBD) was recloned into the plasmid pcDNA3 (Invitrogen) in order to enable constitutive expression by the cytomegalovirus promoter. This plasmid was linearized with a restriction endonuclease and stably transfected into the previously described cell clone containing the luciferase reporter element. The resulting PPARdelta reporter cell line which contains a luciferase reporter element and constitutively expresses the PPARdelta fusion protein (GR-GAL4-human PPARdelta-LBD) was isolated by selection with zeocin (0.5 mg/ml) and G418 (0.5 mg/ml).
The activity of PPARdelta agonists is determined in a 3-day assay in exact analogy to the procedure already described for the PPARalpha reporter cell line except that the PPARdelta reporter cell line and a specific PPARdelta agonist was used as a standard to control test efficacy. […] Compounds of the invention of the formula I activate the PPARdelta receptor.

diabetic animal model = conditions: cited from earlier work
[1] = system: obese, insulin resistant rhesus monkeys; conditions: cited from earlier work
cynomolgus monkeys = conditions: cited from earlier work
healthy volunteers = conditions: two weeks clinical trials in healthy volunteers; cited from earlier work
rhesus monkeys = conditions: cited from earlier work

## COc1ccc2oc(COc3ccc(S(=O)(=O)Nc4nnc(C(C)C)s4)cc3)cc2c1 [Example 12, N-(5-Isopropyl-[1,3,4]thiadiazol-2-yl)-4-(5-methoxy-benzofuran-2-ylmethoxy)-benzenesulfonamide]
Human PPARdelta
  EC50: 480 nM

## CCCc1c(OCCCOc2ccc(OCC(=O)O)cc2)ccc(C(C)=O)c1O [Example L-165041]
Diabetic animal model
  plasma cholesterol: raises plasma cholesterol

## Cc1cc(SCc2sc(-c3ccc(C(F)(F)F)cc3)nc2C)ccc1OCC(=O)O [GW501516]
[1]
  HDL-cholesterol: raises HDL-cholesterol
  plasma LDL-cholesterol: decreases plasma LDL-cholesterol
[1]; plasma
  insulin levels: decreases
  triglycerides: decreases

## CCCc1c(OCCCSc2nnc(SCC(=O)O)s2)ccc(C(C)=O)c1O [YM-16638]
Cynomolgus monkeys
  plasma lipids: significantly lowers plasma lipids
Healthy volunteers
  plasma lipids: acts in a similar manner
Rhesus monkeys
  plasma lipids: significantly lowers plasma lipids

From patent US7910612B2, “4-oxy-N-[1,3,4]-thiadiazol-2-yl-benzene sulfonamides, pharmaceutical compositions and methods for their therapeutic use” (Sanofi-Aventis, priority 2005, dated 2011)
